The values below are quoted from earlier work in the CATMoS acute toxicity set (Mansouri et al. 2021).

As usually defined, the LD50 is the dose expected to kill half of the subjects tested.

Molecules are shown by their SMILES. Where “and” joins values, the source holds several entries; their conditions need not be identical. Identical values can stand only once.

A short description of the series: rat acute oral toxicity. As to conditions: in vivo. An excerpt:
[…]The data set underlying the modeling effort for this project was initially compiled by NICEATM and U.S. EPA’s CCTE. Briefly, LD50 data were collected from rat acute oral systemic toxicity tests, including limit tests, ranges/confidence intervals, and discrete LD50 values. The full data set included 21,200 LD50 entries for 15,688 substances. […] Data were reviewed to ensure that LD50 values with obvious errors in the extracted data such as unit conversion errors (e.g., comma and decimal separator misplacements) were either fixed or removed. After this review, 16,209 LD50 values remained. Many of the chemicals represented had multiple LD50 entries, requiring that a single representative value per Chemical Abstracts Service Registry Number (CASRN) identifier be defined to facilitate modeling efforts. Based on ATWG feedback and to define the representative LD50 as a protective value while accounting for the distribution across multiple LD50s, the median of the lowest quartile was computed using only discrete LD50 values (omitting limit test data and range and confidence interval data). A detailed summary of the data compilation is available online on the NICEATM webpage dedicated to the collaborative modeling project (NTP 2020).
[…][…] For categorical designations, limit test and range/confidence interval LD50 data were integrated wherever possible. As such, the number of chemicals with end point values/calls varies across the modeling end points (Table 3) based on whether chemicals had representative LD50 values and/or other data. If a chemical had both, the representative value was used to determine categorical calls rather than limit test data. Some data were useable only for certain end points and categories depending on the thresholds. For example, ranges that spanned multiple hazard categories were considered only for the binary (very toxic/nontoxic) end points and omitted from rendering a determination for hazard category assignment.
[…]The final data set comprising 11,992 chemicals was split into training and evaluation sets […], respectively. This process was performed semirandomly by ordering chemicals based on the five end points (categorical and continuous LD50 values) and partitioning every fourth record into the evaluation set accordingly. This approach was taken to ensure an equivalent distribution of the LD50 values and the different hazard categories between the training and the evaluation sets without supervised sampling of the chemicals based on structures (Figure 1A). The sources of the chemical structures were also kept equivalent between the two sets, with chemical structures obtained from DSSTox, being the highest quality, representing over 75% of each set (Figure 1B).
On to `c1ccc(-c2cccc(-c3ccccc3)c2)cc1`, for which the median lethal dose (LD50) is 2400 mg/kg.
On to `CCc1cc(S(=O)(=O)O)c2cc(C(C)C)cccc1-2`, for which the LD50 is 1100 mg/kg.
For the molecule `CC(=O)O[C@H]1C[C@H](O[C@H]2[C@@H](OC=O)C[C@H](O[C@H]3[C@@H](OC=O)C[C@H](O[C@H]4CC[C@@]5(C)[C@H](CC[C@@H]6[C@@H]5CC[C@]5(C)[C@@H](C7=CC(=O)OC7)[C@@H](OC=O)C[C@]65O)C4)O[C@@H]3C)O[C@@H]2C)O[C@H](C)[C@H]1OC=O`, the LD50 is 39 mg/kg.
For `C=C(C)OC(C)=O`, the median lethal dose (LD50) is 3000 mg/kg.
With `CC(C)COc1ccc2ccccc2c1`, the LD50 was 5930 mg/kg.
With `COP(=S)(OC)SC(CC(=O)OC(C)C)C(=O)OC(C)C` (configuration not stated), the LD50 was 4000 mg/kg.
As to `COB1OB(OC)OB(OC)O1`, the LD50 was 5160 mg/kg.
Consider `CCCCCCCCOC(CBr)c1ccc(C2CCCC2)cc1` (configuration not stated), for which the LD50 is 250 mg/kg.
For `CON=CC1=CCCN(OC(=O)Nc2ccc(Cl)cc2)C1`, the median lethal dose (LD50) was 500 mg/kg.
On to `O=C(O)C1C2CCC(O2)C1C(=O)O` (configuration not stated), for which the 50% lethal dose (LD50) is 51 mg/kg.
Turning to `CCNC(N)=S`, the 50% lethal dose (LD50) is 100 mg/kg.
Regarding `CCOCCN(C(=O)CCl)C(=C(C)C)c1ccccc1`, the median lethal dose (LD50) is 983 mg/kg.
`CNC(=O)ON=CC(C)(C)OC`: the median lethal dose (LD50) is 15 mg/kg.
Turning to `ClCC(Cl)=C(Cl)C(Cl)Cl`, the 50% lethal dose (LD50) was 472 mg/kg.
Take `C(=NCCCCCCN=Cc1ccco1)c1ccco1`: the median lethal dose (LD50) was 490 mg/kg.
In the case of `NN1C(=O)CSC1=S`, the median lethal dose (LD50) was 2.21 mg/kg.
On to `CSCCC(O)C(=O)O` (configuration not stated), for which the 50% lethal dose (LD50) is 3480 mg/kg.
`COc1ccccc1`: the LD50 is 3700 mg/kg.
`CC(C)CCCCCOC(=O)COc1ccc(Cl)cc1Cl`: the LD50 is 982 mg/kg.
Consider `CN(C)C(=O)CCCOC(=O)C(C)(C)Oc1ccc(Cl)cc1`, for which the LD50 was 2480 mg/kg.
Turning to `C#CCOC(C)=O`, the median lethal dose (LD50) was 250 mg/kg.
Regarding `C[N+]1(CCF)[C@@H]2CC[C@H]1C[C@@H](OC(=O)C(O)(c1ccccc1)c1ccccc1)C2` (single isomer, unassigned), the LD50 was 740 mg/kg.
Turning to `CC(C)Oc1cccc(C2CC(=O)NC2=O)c1` (configuration not stated), the LD50 was 2400 mg/kg.
With `C=CCOc1ccccc1OC(=O)NC`, the LD50 is 200 mg/kg.
`O=S(=O)(O)OCCOc1cc(Cl)c(Cl)cc1Cl`: the median lethal dose (LD50) is 720 mg/kg.
As for `CC[C@@H]1C(=O)OC[C@@H]1Cc1cncn1C`, the LD50 was 911 mg/kg and 402 mg/kg.
On to `CNC(=O)Oc1cc(C)c(SC)c(C)c1`, for which the LD50 was 20 mg/kg.
Turning to `COc1cc(CC(C)N)cc2c1OCO2` (configuration not stated), the LD50 is 170 mg/kg.
Take `O=CC=CC1CO1` (configuration not stated): the median lethal dose (LD50) was 62 mg/kg.
Turning to `FC(F)(F)c1nc2c(Br)cc(Cl)cc2[nH]1`, the LD50 is 7.18 mg/kg.
Regarding `O=C(CCCN1CCC(O)CC1)c1ccc(F)cc1`, the 50% lethal dose (LD50) was 2400 mg/kg.
As to `CNC(=O)Oc1cc(C)c(NC(=O)O)c(C)c1`, the LD50 is 71 mg/kg.
On to `CCOCCOCC(C)O` (configuration not stated), for which the LD50 was 9330 mg/kg.
In the case of `C=CCSC(=S)SC(Cl)(Cl)Cl`, the LD50 is 2180 mg/kg.
In the case of `CN=NNc1ccc(I)cc1`, the 50% lethal dose (LD50) was 499 mg/kg.
`Cc1ncc(CO)c(CN)c1O`: the median lethal dose (LD50) is 7500 mg/kg.
As for `CC(C)(C)NC(=O)[C@H]1CC[C@H]2[C@@H]3CC[C@H]4NC(=O)C=C[C@]4(C)[C@H]3CC[C@]12C`, the LD50 was 418 mg/kg.
In the case of `Cc1cccs1`, the LD50 is 3200 mg/kg.
As for `O=[N+]([O-])c1ccc(Oc2c(Cl)cc(Cl)cc2Cl)cc1`, the LD50 is 10800 mg/kg.
For `c1ccc(C(c2ccccc2)(c2ccccc2)N2CCOCC2)cc1`, the LD50 was 83 mg/kg.
For `CCN(CC)CC1CCCCN1CC(=O)N1c2ccccc2C(=O)Nc2cccnc21` (configuration not stated), the LD50 is 1530 mg/kg.
Consider `CC(C)(C)c1cc(C2C(=O)c3ccccc3C2=O)cc(C(C)(C)C)c1`, for which the 50% lethal dose (LD50) was 194 mg/kg.
For `C=CC(C)(O)CCCCC` (configuration not stated), the 50% lethal dose (LD50) is 1800 mg/kg.
Regarding `CCC/C=C/C=O`, the 50% lethal dose (LD50) was 780 mg/kg.
Turning to `CC(C)NNC(=O)COc1ccc(Cl)cc1`, the median lethal dose (LD50) was 550 mg/kg.
As for `CCOP(=S)(OCC)SCS(=O)CC` (configuration not stated), the median lethal dose (LD50) is 2 mg/kg.
Turning to `CCN(CCC(=O)OC)c1ccccc1`, the LD50 is 2450 mg/kg.
`Cc1ccc(N=C=O)cc1N=C=O`: the LD50 is 5800 mg/kg.
Consider `CC(C)COC(=O)c1ccccc1O`, for which the LD50 is 1560 mg/kg.
Consider `Cc1ccn(C(=O)NCCCCNC(=O)n2ccc(C)n2)n1`, for which the LD50 was 4600 mg/kg.
For the molecule `CCCCC(CC)COP(OCC(CC)CCCC)OCC(CC)CCCC` (configuration not stated), the LD50 was 6200 mg/kg.
Take `CCCCOc1ccc(C(CN(C)C)C(C)CC)cc1Cl` (configuration not stated): the LD50 is 1050 mg/kg.
As for `CCNC(=O)C(C)OC(=O)Nc1ccccc1` (configuration not stated), the median lethal dose (LD50) was 11000 mg/kg.
As to `CCOC(=O)C(C)N(C(=O)c1ccccc1)c1ccc(Cl)c(Cl)c1` (configuration not stated), the LD50 is 1550 mg/kg.
As to `Nc1ccc(C(=O)O)c(O)c1`, the LD50 is 8000 mg/kg.
With `Cc1nc(-c2cccnc2)sc1[N+](=O)[O-]`, the median lethal dose (LD50) is 815 mg/kg.
With `CN=NNc1ccc(C)cc1`, the LD50 was 381 mg/kg.
For `CO[C@H]1[C@@H](O)C[C@H](O[C@H]2[C@@H](O)C[C@H](O[C@H]3[C@@H](O)C[C@H](O[C@H]4CC[C@@]5(C)[C@H](CC[C@@H]6[C@@H]5C[C@@H](O)[C@]5(C)[C@@H](C7=CC(=O)OC7)CC[C@]65O)C4)O[C@@H]3C)O[C@@H]2C)O[C@@H]1C`, the LD50 was 8.3 mg/kg.
Turning to `COC(=O)/C=C(/CC(=O)OC)OP(=O)(OC)OC`, the LD50 is 31 mg/kg.
For `CCOP(=S)(CCl)Oc1ccc(C#N)cc1OC` (configuration not stated), the LD50 is 71 mg/kg.
As for `C=Cc1cccc(Cl)c1`, the 50% lethal dose (LD50) was 5200 mg/kg.
For the molecule `CC(=O)SCC[N+](C)(C)C`, the median lethal dose (LD50) is 100 mg/kg.
For the molecule `C=C(Cl)CCl`, the 50% lethal dose (LD50) is 320 mg/kg.
Turning to `CC(C)(C)c1cc([N+](=O)[O-])cc(C(C)(C)C)c1O`, the LD50 is 250 mg/kg.
Turning to `O=C1C(=NNc2cc([N+](=O)[O-])ccc2O)C(S(=O)(=O)O)=Cc2cc(S(=O)(=O)O)cc(Nc3nc(Cl)nc(Cl)n3)c21`, the 50% lethal dose (LD50) was 9120 mg/kg.
On to `O=C(O)CF`, for which the LD50 is 4.68 mg/kg.
Consider `CN(C)P(=O)(N(C)C)N(C)C`, for which the LD50 is 2650 mg/kg.
Consider `CCN(CC)c1cccc(OC(=O)NC)c1`, for which the LD50 was 91 mg/kg.
Regarding `O=C(c1ccc(O)cc1O)c1ccc(O)cc1O`, the 50% lethal dose (LD50) is 1220 mg/kg.
Consider `OCCN1CCCCC1`, for which the LD50 is 1500 mg/kg.
Consider `O=C(O)c1cc(N=Nc2ccc(S(=O)(=O)O)cc2)ccc1O`, for which the LD50 was 14000 mg/kg.
In the case of `CCOC(=O)C(=O)NP(=O)(OC)SC` (configuration not stated), the LD50 was 501 mg/kg.
As to `CC=C(C)C(=O)N1CCCc2cc(C)ccc21`, the LD50 was 2200 mg/kg.
Consider `Cc1ccc2c(c1)CC(=O)c1cc(C(C)C(=O)O)ccc1O2` (configuration not stated), for which the LD50 was 147 mg/kg.
For the molecule `CCSCCOc1ccc([N+](=O)[O-])cc1`, the median lethal dose (LD50) was 826 mg/kg.
Take `CCCCCCCCCc1ccc(OCCOS(=O)(=O)O)cc1`: the LD50 is 10000 mg/kg.
Consider `O=P(O)(O)CCCl`, for which the median lethal dose (LD50) is 2200 mg/kg.
Take `Nc1ccc([N+](=O)[O-])cc1[N+](=O)[O-]`: the LD50 is 285 mg/kg.
As for `CCC(C)c1ccc(OC(=O)NC)cc1` (configuration not stated), the LD50 was 44 mg/kg.
Take `C1CC2OC2CC1C1CO1` (configuration not stated): the 50% lethal dose (LD50) is 2830 mg/kg.
For the molecule `C[Si](Cl)(Cl)CCC(F)(F)F`, the 50% lethal dose (LD50) is 1000 mg/kg.
With `C=C(C)C#N`, the median lethal dose (LD50) was 120 mg/kg.
For the molecule `CCCCCCCCCCCCOC(C[n+]1ccccc1)c1ccc(C(C)C)cc1` (configuration not stated), the LD50 is 250 mg/kg.
As to `CCCCOCCOCCCC`, the median lethal dose (LD50) was 3250 mg/kg.
As to `Nc1cccc(C(O)CNC2CC2)c1` (configuration not stated), the LD50 is 3250 mg/kg.
As to `O=S(=O)(O)c1ccc2cc(Nc3cccc4c(O)c(S(=O)(=O)O)ccc34)ccc2c1O`, the median lethal dose (LD50) was 11000 mg/kg.
As for `Clc1cccc(C2CCCCC2)c1Cl`, the 50% lethal dose (LD50) is 4750 mg/kg.
